Data as given in patent US20130089603A1, “COMPOSITIONS AND METHODS FOR TREATING OBESITY AND OBESITY-RELATED CONDITIONS” (CHELATEXX LLC, priority 2006, published 2013).
Where two headings read alike, the source gives them in different places.

Columns and labels:
pancreatic lipase = target: T1, pancreatic lipase (Homo sapiens, UniProt P16233); test: in vitro testing of lipase inhibitor effectiveness in presence of activated charcoal; format: biochemical; conditions: 60 mg of orlistat with simethicone and 400 mg of porous activated charcoal (not enteric-coated)
T1 sequence (P16233 17-465): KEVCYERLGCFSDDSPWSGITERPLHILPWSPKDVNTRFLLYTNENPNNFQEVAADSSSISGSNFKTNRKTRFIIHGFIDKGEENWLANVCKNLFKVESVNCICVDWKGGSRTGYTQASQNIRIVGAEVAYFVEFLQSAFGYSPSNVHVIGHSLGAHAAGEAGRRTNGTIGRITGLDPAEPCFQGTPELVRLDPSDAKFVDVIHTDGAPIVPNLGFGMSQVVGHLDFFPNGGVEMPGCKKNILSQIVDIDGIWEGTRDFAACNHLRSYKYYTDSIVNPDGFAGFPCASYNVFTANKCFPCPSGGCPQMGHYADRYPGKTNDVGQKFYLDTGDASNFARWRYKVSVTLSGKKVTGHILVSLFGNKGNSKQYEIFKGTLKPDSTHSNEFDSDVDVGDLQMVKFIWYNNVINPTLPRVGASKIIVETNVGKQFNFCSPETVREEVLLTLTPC
Excerpt: While the embodiment described in the preceding paragraph has been proven effective in preventing Underwear Issues associated with lipase inhibitors, in vitro testing has shown that the effectiveness of the lipase inhibitor is decreased due to the fact that some of the lipase inhibitor is absorbed by the activated charcoal and is therefore not available for binding to pancreatic lipase. […] Rather, the pharmaceutical composition may be configured such that the lipase inhibitor and surfactant are released in the stomach, and the activated charcoal is not released until the small intestine. By doing so, the lipase inhibitor becomes irreversibly bound to the pancreatic lipase enzyme (about 25%) in the very first 10 centimeters of the small intestines (the duodenum), prior to release of the activated charcoal, thus ensuring that the activated charcoal will not interfere with the ability of the lipase inhibitor to inactivate pancreatic lipase. For this reason, the activated charcoal in some embodiments of the compositions and methods herein is enteric-coated in order to maintain the full efficacy of the lipase inhibitor. […] Therefore, by using an enteric coated porous activated charcoal, the small undigested fat, emulsified in the chyme by actions of the emulsifying agent, can be chelated by the released porous activated charcoal in the distal small bowel.

[1] = clinical trials on over 2800 patients for one or two years; cited from earlier work
[2] = cited from earlier work
[3] = cited from earlier work; remark: listed apart in the source
[4] = cited from earlier work; remark: listed apart in the source

SMILES: CCCCCCCCCCC[C@@H](C[C@@H]1OC(=O)[C@H]1CCCCCC)OC(=O)[C@H](CC(C)C)NC=O [orlistat, tetrahydrolipstatin]
- decrease in the effectiveness of the orlistat (pancreatic lipase): 30%
- Abdominal pain/discomfort (upper gastrointestinal adverse event) [1]: 25.5%
- Fatty/Oily stool (lower gastrointestinal adverse event) [1]: 26.0%
- Fecal incontinence (lower gastrointestinal adverse event) [1]: 7.7%
- Fecal urgency (lower gastrointestinal adverse event) [1]: 22.1%
- Flatus - with discharge (lower gastrointestinal adverse event) [1]: 23.9%
- Increased defecation (lower gastrointestinal adverse event) [1]: 10.8%
- Nausea (upper gastrointestinal adverse event) [1]: 8.1%
- Oily Evacuation (lower gastrointestinal adverse event) [1]: 11.9%
- Oily Spotting (lower gastrointestinal adverse event) [1]: 26.6%
- study participants with adverse events ([2]; 60 mg of orlistat): 89.1%
- study participants with adverse events ([2]; 120 mg of orlistat): 91.4%
- ingested fat whose digestion and absorption is prevented ([3]; 60 mg dose of orlistat (OTC)): 25%
- ingested fat whose digestion and absorption is prevented ([3]; 120 mg dose of orlistat (prescription)): 30%
- ingested fat whose digestion and absorption is prevented ([3]; dose not stated): 25-35%
- individuals reporting orlistat adverse events ([4]; normal (25 grams of fat/meal) US diet): over 90%
- individuals reporting orlistat adverse events ([4]; rigid low fat diet): over 50%
